Assay results reported in US20240409536A1, “COMPOUNDS AND METHODS FOR MODULATING SPLICING” (REMIX THERAPEUTICS INC., priority 2021, published 2024).
Counter-ions that a name gives are not always drawn.

Legend:
SMN2 mRNA = assay: Gene panel canonical junction qPCR assay, SMN2 CJ mRNA decrease; assay type: cell-based, human; settings: Homo sapiens, canonical junction qPCR, read-out: SMN2 IC50 (decrease in CJ mRNA levels)
Summary of the method: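 A673 or K562 cells were treated with compound, and lysates underwent cDNA synthesis and qPCR with a CY5 5′-nuclease probe or primer spanning the canonical exon junction. ΔCt versus GAPDH, GUSB or PPIA was normalized to DMSO (2^(−ΔΔCt)), converted to percentage response and fitted four-parameter logistic for IC50.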

HiBiT-tagged MYB protein = assay: HiBiT protein abundance assay, MYB (K562 HiBiT knock-in cells); assay type: cell-based, human; settings: 24 hours
Summary of the method: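 Luminescent readout of HiBiT-tagged endogenous protein after lysis, following 24 h compound exposure of knock-in K562 lines at 37 °C. Ten 3-fold concentrations from 10 μM final, DMSO ≤0.25%. Four-parameter logistic fit of normalized response gives concentration halving abundance (IC50).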

SMILES | IC50 (SMN2 mRNA) [nM] | IC50 (HiBiT-tagged MYB protein) [nM]
COCCOc1ccc2c(N3CCNCC3)ccc(C(=O)Nc3cc(F)c4nc(C)cn4c3)c2n1 [Compound 173, N-{8-fluoro-2-methylimidazo[1,2-a]pyridin-6-yl}-2-(2-methoxyethoxy)-5-(piperazin-1-yl)quinoline-8-carboxamide] | < 100 | < 100
Cc1cn2cc(NC(=O)c3ccc(N4CC(C)(C)NC(C)(C)C4)c4nccnc34)cc(F)c2n1 [Compound 219, N-{8-fluoro-2-methylimidazo[1,2-a]pyridin-6-yl}-8-(3,3,5,5-tetramethylpiperazin-1-yl)quinoxaline-5-carboxamide] | < 100 | < 100
CCC1CN(c2ccc(C(=O)Nc3cc(F)c4nc(C)cn4c3)c3nnccc23)CCN1 (stereo not shown) [Compound 130] | < 100 | < 100
Cc1cn2cc(NC(=O)c3ccc(N4CCNC5(CC5)C4)c4ccnnc34)cc(F)c2n1 [Compound 105] | < 100 | 100 to 1000
COc1cnc2c(C(=O)Nc3cc(F)c4nc(C)cn4c3)ccc(N3CCNCC3)c2n1 [Compound 225, N-{8-fluoro-2-methylimidazo[1,2-a]pyridin-6-yl}-2-methoxy-8-(piperazin-1-yl)quinoxaline-5-carboxamide] | < 100 | < 100
CCNC1CCN(c2ccc(C(=O)Nc3cc(F)c4nc(C)sc4c3)c3nnccc23)CC1 [Compound 221, 5-[4-(ethylamino)piperidin-1-yl]-N-(4-fluoro-2-methyl-1,3-benzothiazol-6-yl)cinnoline-8-carboxamide] | < 100 | 100 to 1000
Cc1ccc2c(N3C[C@@H](C)N[C@@H](C)C3)ccc(C(=O)Nc3cc(F)c4nc(C)cn4c3)c2n1 [Compound 214, 5-[(3R,5S)-3,5-dimethylpiperazin-1-yl]-N-{8-fluoro-2-methylimidazo[1,2-a]pyridin-6-yl}-2-methylquinoline-8-carboxamide] | < 100 | < 100
Cc1cn2cc(NC(=O)c3ccc(N4CCN(C)[C@@H](C)C4)c4ccnnc34)cc(F)c2n1 [Compound 150] | < 100 | 100 to 1000
Cc1cn2cc(NC(=O)c3ccc(N4CCNC(C)(C)C4)c4nccnc34)cc(F)c2n1 [Compound 220, 8-(3,3-dimethylpiperazin-1-yl)-N-{8-fluoro-2-methylimidazo[1,2-a]pyridin-6-yl}quinoxaline-5-carboxamide] | < 100 | < 100
Cc1cn2cc(NC(=O)c3ccc(N(C)[C@@H]4C[C@H]5CC[C@@H](C4)N5)c4ccnnc34)cc(F)c2n1 [Compound 156] | 100 to 1000 | 1000 to 10000
Cc1cn2cc(NC(=O)c3ccc(N4CCN(C)CC4)c4ccnnc34)cc(F)c2n1 [Compound 127] | < 100 | 100 to 1000
Cc1c(O)c(NC(=O)c2ccc(N3CCNCC3)c3ccnnc23)cc2cn(C)nc12 [Compound 181, N-(6-hydroxy-2,7-dimethylindazol-5-yl)-5-(piperazin-1-yl)cinnoline-8-carboxamide] | < 100 | 1000 to 10000
Cc1cn2cc(NC(=O)c3ccc(N4C[C@@H](C)NC5(CC5)C4)c4nccnc34)cc(F)c2n1 [Compound 376] | < 100 | 100 to 1000
Cc1cn2cc(NC(=O)c3ccc(N4CCC(N(C)C)C4)c4ccnnc34)cc(F)c2n1 (stereo not shown) [Compound 134] | < 100 | < 100
Cc1cn2cc(NC(=O)c3ccc(N4CCNCC4)c4ccnnc34)cc(C)c2n1 [Compound 125] | < 100 | 100 to 1000
Cc1cn2cc(NC(=O)c3ccc(N4CCNCC4)c4ccnnc34)[nH]c(=O)c2n1 [Compound 177, N-{2-methyl-8-oxo-7H-imidazo[1,2-a]pyrazin-6-yl}-5-(piperazin-1-yl)cinnoline-8-carboxamide trifluoroacetic acid salt] | 100 to 1000 | 100 to 1000
Cc1cn2cc(NC(=O)c3ccc(N4CCC5(CCN5)CC4)c4nccnc34)cc(F)c2n1 [Compound 189, 8-{1,7-diazaspiro[3.5]nonan-7-yl}-N-{8-fluoro-2-methylimidazo[1,2-a]pyridin-6-yl}quinoxaline-5-carboxamide] | < 100 | < 100
COCCOc1cc2c(N3CCNCC3)ccc(C(=O)Nc3cc(F)c4nc(C)cn4c3)c2nn1 [Compound 199, N-{8-fluoro-2-methylimidazo[1,2-a]pyridin-6-yl}-3-(2-methoxyethoxy)-5-(piperazin-1-yl)cinnoline-8-carboxamide] | < 100 | < 100
Cc1cn2cc(NC(=O)c3ccc(N4CCNC(C)C4)c4ccnnc34)cc(F)c2n1 (stereo not shown) [Compound 128] | < 100 | < 100
Cc1cn2cc(NC(=O)c3ccc(N4CCC(NC(C)(C)C)CC4)c4ccnnc34)cc(F)c2n1 [Compound 138] | < 100 | 100 to 1000
Cc1cnc2c(N3CCNCC3)ccc(C(=O)Nc3cc(F)c4nc(C)cn4c3)c2n1 [Compound 197, N-{8-fluoro-2-methylimidazo[1,2-a]pyridin-6-yl}-3-methyl-8-(piperazin-1-yl)quinoxaline-5-carboxamide; trifluoroacetic acid] | < 100 | < 100
CNC1CCN(c2ccc(C(=O)Nc3cc(F)c4nc(C)cn4c3)c3nc(C)ccc23)C1 (stereo not shown) [Compound 196, N-{8-fluoro-2-methylimidazo[1,2-a]pyridin-6-yl}-2-methyl-5-[3-(methylamino)pyrrolidin-1-yl]quinoline-8-carboxamide 2,2,2-trifluoroacetate] | < 100 | < 100
Cc1cn2nc(NC(=O)c3ccc(N4CCNCC4)c4ccnnc34)cc2c(C)n1 [Compound 123] | 1000 to 10000 | 1000 to 10000
